Test results: PubChem BioAssay (NCI)
≈ marks a conversion by molar mass, not a printed value.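 Step 1: Grow cells in 96-well plates. Step 2: Expose to compound for 48 hours at 5 concentrations. Step 3: Interpolate endpoints linearly; if unreached, use highest concentration. The concentration for 50% growth inhibition is given as GI50. At the TGI there is no net growth.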

Tests used:
Test in all cases: NCI-60 cell line screen, 48 h
[1] = system: K-562 leukemia
[2] = system: SK-MEL-5 melanoma
[3] = system: NCI-H460 lung
[4] = system: HOP-62 NSCLC
[5] = system: OVCAR-4 ovarian
[6] = system: OVCAR-8 ovarian
[7] = system: HT29 colon
[8] = system: HCT-15 colon
[9] = system: UACC-257 melanoma
[10] = system: NCI-H23 lung

Row | Structure (SMILES) | GI50 [1] [µg/mL] | TGI [1] | GI50 [2] [µg/mL] | TGI [2] | GI50 [3] [µg/mL] | TGI [3] | GI50 [4] [µg/mL] | TGI [4] | GI50 [5] [µg/mL] | TGI [5] | GI50 [6] [µg/mL] | TGI [6] | GI50 [7] [µg/mL] | TGI [7] | GI50 [8] [µg/mL] | TGI [8] | GI50 [9] [µg/mL] | TGI [9] | GI50 [10] [µg/mL] | TGI [10]
1 | O=C1NN(C2=NNC3(C(=O)N2)c2ccccc2-c2ccccc23)C(c2ccccc2)=N/C1=C/c1ccc(Cl)cc1 | 50.4 (≈ 92.6 µM) | > 150 µg/mL | 46.4 (≈ 85.1 µM) | > 150 µg/mL | 48.7 (≈ 89.3 µM) | > 150 µg/mL | 49.1 (≈ 90 µM) | > 150 µg/mL | 62.8 (≈ 115 µM) | > 150 µg/mL | 78.1 (≈ 143 µM) | > 150 µg/mL | 89.6 (≈ 164 µM) | > 150 µg/mL | 54.1 (≈ 99.3 µM) | > 150 µg/mL | 68 (≈ 125 µM) | > 150 µg/mL | 34.9 (≈ 64.1 µM) | > 150 µg/mL
2 | O=c1oc2ccccc2c(O)c1Cc1ccc(Cc2c(O)c3ccccc3oc2=O)cc1 | – | > 100 µM | – | > 100 µM | – | > 100 µM | – | > 100 µM | – | > 100 µM | – | > 100 µM | – | > 100 µM | – | > 100 µM | – | > 100 µM | – | > 100 µM
3 | CCOC(=O)c1csc(NC(=O)C(C)N2CCCC2)n1 (stereo not given) | – | > 100 µM | – | > 100 µM | – | > 100 µM | – | > 100 µM | – | > 100 µM | – | > 100 µM | – | > 100 µM | – | > 100 µM | – | > 100 µM | – | > 100 µM
